Experiments:
[1] = biological target: Recombinant human KAT6A protein (497-780) (Homo sapiens (Human), UniProt Q92794); experiment: KAT6A biochemical TR-FRET assay; conditions: histone H4 peptide 2000 nM, AcCoA 300 nM, enzyme 5 nM
Method: Enzymatic reactions of KAT6A and KAT6B were performed using Fluorescence Resonance Energy Transfer (TR-FRET) assay, which measures acetylation of a synthetic, biotinylated histone-H4 peptide by the KAT6A and KAT6B enzymes. Recombinant human KAT6A protein (497-780) were expressed in BL21 cell using an E. coli expression system. Recombinant human KAT6B protein (657-1069) was expressed in sf9 cell using a baculovirus expression system. […] Acetyl coenzyme A was purchased from Sigma-Aldrich (#A-2056).
Testing for the inhibition activities of various compounds disclosed herein was carried out at room temperature in assay buffer containing 100 mM Tris/HCl Ph7.8, 15 mM NaCl, 0.01% chicken egg white albumin, 1 mM DTT and 0.01% Tween-20. Compounds in DMSO were dispensed into wells of a black, 384-well plate (Corning 4514) using ECHO555 (Beckman). The final concentration ranges of the test compounds were 0.0625-1,000 nM, 0.625-10,000 nM, or 0.313-5,000 nM. Five μL of KAT6A or KAT6B enzyme solution were added to wells, and the plate was incubated for 1 hour at room temperature (rt). After incubation for 1 hour at rt, 5 μL H4 and AcCoA substrate solutions were added to the wells to initiate reaction, and the plate was incubated. After 2 hours reaction, 5 μL detection reagent were added to the wells, and the plate was incubated for 2 hours. After two hours incubation, detection reagent containing 5 nM Anti-histone H4 antibody (ABCAM #ab177790), 100 μM formic acid (sigma #06473-100ML), 0.1 test/μL streptavidin-XL665 (PerkinElmer #610SAXLG), 0.05 test/μL PAb anti-rabbit IgG-Eu (PerkinElmer μ61PARKLA) was added to the wells. TR-FRET was measured on a microplate reader (PHERAstar FSX, BMG labtech). […] In Table 6, I≤5 nM, 5 nM<II≤50 nM.

[2] = tested on: histone H3K23 acetylation in U-2 OS cells; experiment: Histone H3 lysine 23 acetylation assay in U-2 OS cells (high content analysis); assay type: cell-based; conditions: 24 hrs exposure, H3K23ac level
Method: Assay B: Histone H3 lysine 23 Acetylation Assay
Compounds were tested for their capacity to suppress the histone H3K23 acetylation in the following high content analysis assay.
The cell line U-2 OS (ATCC HTB-96) was seeded at a density of 2000 cells per well in black 384 well cell culture/imaging microplates in 45 μl McCoy's 5A medium with […]. After overnight incubation in 37° C., 5% CO2 incubator, cells were then treated with a 9-point dilution series of compounds and a blank control group with medium containing 0.1% DMSO.
Following a 24 hrs exposure to the compounds, the cells were fixed with 4% immunohistochemical fixative for 20 mins at room temperature, washed with DPBS with 2% fetal bovine serum, and permed with Perm Buffer III for 30 min on ice, washed with DPBS with 2% fetal bovine serum. Then the cells were blocked with Odyssey blocking buffer containing 0.1% Tween 20. 20 ul Anti-Histone H3 (acetyl K23) antibody (Abcam, ab177275) in odyssey blocking buffer containing 0.1% Tween20 was added and incubated overnight at 4° C. After incubation, the cells were washed for 3 times and a secondary antibody Anti-rabbit IgG (H+L), F(ab′)2 Fragment (Alexa Fluor® 647 Conjugate) (CST, 4414S) were added into cells for one hour. The cells were washed and 1 ug/ml DAPI (Thermo, 62248) were added for 10 min. Then cells were washed and read on the PerkinElmer Operetta CLS high content analysis system. The nuclei were identified by DAPI and H3K23ac level was calculated from the Alexa Fluor 647 intensity in the nuclei. Inhibition rate of H3K23ac was calculated as the mean intensity of cells per well relative to blank controls on the same plate.

[3] = biological target: Recombinant human KAT6B protein (657-1069) (Homo sapiens (Human), UniProt Q8WYB5); experiment: KAT6B biochemical TR-FRET assay; conditions: histone H4 peptide 1000 nM, AcCoA 100 nM, enzyme 5 nM
Chain of Recombinant human KAT6B protein (657-1069) (Q8WYB5 657-1069): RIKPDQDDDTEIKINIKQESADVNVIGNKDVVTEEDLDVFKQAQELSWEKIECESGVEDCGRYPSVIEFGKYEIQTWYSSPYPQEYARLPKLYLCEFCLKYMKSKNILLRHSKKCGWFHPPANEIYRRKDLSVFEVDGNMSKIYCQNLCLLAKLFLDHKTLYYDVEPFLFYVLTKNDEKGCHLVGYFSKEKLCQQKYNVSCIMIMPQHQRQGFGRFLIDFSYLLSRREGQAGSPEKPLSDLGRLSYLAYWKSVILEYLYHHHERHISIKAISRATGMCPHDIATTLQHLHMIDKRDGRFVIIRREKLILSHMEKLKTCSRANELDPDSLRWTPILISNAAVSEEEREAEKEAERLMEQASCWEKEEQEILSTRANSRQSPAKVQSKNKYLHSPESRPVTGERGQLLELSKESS
Method: Enzymatic reactions of KAT6A and KAT6B were performed using Fluorescence Resonance Energy Transfer (TR-FRET) assay, which measures acetylation of a synthetic, biotinylated histone-H4 peptide by the KAT6A and KAT6B enzymes. Recombinant human KAT6A protein (497-780) were expressed in BL21 cell using an E. coli expression system. Recombinant human KAT6B protein (657-1069) was expressed in sf9 cell using a baculovirus expression system. Histone H4 peptide (SEQ ID NO: 1—[…]-GGK-Biotin), which was used as substrate, was synthesized by GL Biochem, Shanghai, China. Acetyl coenzyme A was purchased from Sigma-Aldrich (#A-2056).
Testing for the inhibition activities of various compounds disclosed herein was carried out at room temperature in assay buffer containing 100 mM Tris/HCl Ph7.8, 15 mM NaCl, 0.01% chicken egg white albumin, 1 mM DTT and 0.01% Tween-20. Compounds in DMSO were dispensed into wells of a black, 384-well plate (Corning 4514) using ECHO555 (Beckman). The final concentration ranges of the test compounds were 0.0625-1,000 nM, 0.625-10,000 nM, or 0.313-5,000 nM. Five μL of KAT6A or KAT6B enzyme solution were added to wells, and the plate was incubated for 1 hour at room temperature (rt). After incubation for 1 hour at rt, 5 μL H4 and AcCoA substrate solutions were added to the wells to initiate reaction, and the plate was incubated. After 2 hours reaction, 5 μL detection reagent were added to the wells, and the plate was incubated for 2 hours. After two hours incubation, detection reagent containing 5 nM Anti-histone H4 antibody (ABCAM #ab177790), 100 μM formic acid (sigma #06473-100ML), 0.1 test/μL streptavidin-XL665 (PerkinElmer #610SAXLG), 0.05 test/μL PAb anti-rabbit IgG-Eu (PerkinElmer μ61PARKLA) was added to the wells. TR-FRET was measured on a microplate reader (PHERAstar FSX, BMG labtech). The IC50s were calculated based on inhibition of enzyme activity in the presence of increasing concentrations of test compounds, and the results are shown in Table 6. In Table 6, I≤5 nM, 5 nM<II≤50 nM.

Chain of Recombinant human KAT6A protein (497-780) (Q92794 497-780): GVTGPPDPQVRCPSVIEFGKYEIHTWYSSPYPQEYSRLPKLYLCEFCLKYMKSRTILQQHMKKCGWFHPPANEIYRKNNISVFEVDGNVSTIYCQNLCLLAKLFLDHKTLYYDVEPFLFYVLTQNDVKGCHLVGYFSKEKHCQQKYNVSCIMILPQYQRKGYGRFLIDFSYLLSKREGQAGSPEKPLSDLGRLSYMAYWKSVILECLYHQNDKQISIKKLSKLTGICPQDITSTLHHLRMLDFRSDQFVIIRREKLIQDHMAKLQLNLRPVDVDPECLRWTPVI

Row | Structure (SMILES) | IC50 [1] | IC50 ([2]; Homo sapiens, U2OS) | IC50 [3] | IC50 [2]
1 | COc1ccc(C23CC(C2)C3)nc1S(=O)(=O)NC(=O)c1ccc(Cn2cccn2)c(OC)n1 [Example C79, 5-((1H-pyrazol-1-yl)methyl)-N-((6-(bicyclo[1.1.1]pentan-1-yl)-3-methoxypyridin-2-yl)sulfonyl)-6-methoxypicolinamide] | ≤ 5 nM | ≤ 10 nM | ≤ 5 nM | 
2 | COc1ccc(C(C)(C)C)nc1S(=O)(=O)NC(=O)c1ccc(Cn2cccn2)c(Br)c1 [Example C26, 4-((1H-pyrazol-1-yl)methyl)-3-bromo-N-((6-(tert-butyl)-3-methoxypyridin-2-yl)sulfonyl)benzamide] | ≤ 5 nM | ≤ 10 nM | ≤ 5 nM | 
3 | COc1cc(C(=O)NS(=O)(=O)c2nc(C(C)(C)C)ccc2OC)ccc1Cn1cccn1 [Example C27, 4-((1H-pyrazol-1-yl)methyl)-N-((6-(tert-butyl)-3-methoxypyridin-2-yl)sulfonyl)-3-methoxy-benzamide] | ≤ 5 nM | ≤ 10 nM | ≤ 5 nM | 
4 | COc1cc(C(=O)NS(=O)(=O)c2cc(C3(OC)CC3)ccc2OC)ccc1Cn1cccn1 [Example C28, 4-((1H-pyrazol-1-yl)methyl)-3-methoxy-N-((2-methoxy-5-(1-methoxy-cyclopropyl)phenyl)sulfonyl)benzamide] | ≤ 5 nM | ≤ 10 nM | ≤ 5 nM | 
5 | COc1ccc(C(C)(C)C)nc1S(=O)(=O)NC(=O)c1ccc(Cn2cccn2)c(C(F)(F)F)c1 [Example C25, 4-((1H-pyrazol-1-yl)methyl)-N-((6-(tert-butyl)-3-methoxypyridin-2-yl)sulfonyl)-3-(trifluoromethyl)benzamide] | ≤ 5 nM | ≤ 10 nM | ≤ 5 nM | 
6 | COc1ccc2c(c1S(=O)(=O)NC(=O)c1ccc(Cn3cccn3)c(OC)n1)OCC21CCC1 [Example C60, 5-((1H-pyrazol-1-yl)methyl)-6-methoxy-N-((6-methoxy-2H-spiro[benzofuran-3,1′-cyclobutan]-7-yl)sulfonyl)picolinamide] | ≤ 5 nM | ≤ 10 nM | ≤ 5 nM | 
7 | COc1ccc2c(c1S(=O)(=O)NC(=O)c1ccc(Cn3cccn3)c(C3CC3)n1)OC(C)(C)C2 [Example C46, 5-((1H-pyrazol-1-yl)methyl)-6-cyclopropyl-N-((6-methoxy-2,2-dimethyl-2,3-dihydrobenzofuran-7-yl)sulfonyl)picolinamide] | ≤ 5 nM | ≤ 10 nM | ≤ 5 nM | 
8 | COc1ccc(C2(C)CC3(COC3)C2)cc1S(=O)(=O)NC(=O)c1ccc(Cn2cccn2)c(OC)n1 [Example C74, 5-((1H-pyrazol-1-yl)methyl)-6-methoxy-N-((2-methoxy-5-(6-methyl-2-oxaspiro[3.3]heptan-6-yl)phenyl)sulfonyl) picolinamide] | ≤ 5 nM | ≤ 10 nM | ≤ 5 nM | 
9 | COc1ccc(C2(OC)COC2)cc1S(=O)(=O)NC(=O)c1ccc(Cn2cccn2)c(OC)n1 [Example C67, 5-((1H-pyrazol-1-yl)methyl)-6-methoxy-N-((2-methoxy-5-(3-methoxyoxetan-3-yl)phenyl)sulfonyl) picolinamide] | ≤ 5 nM | ≤ 10 nM | ≤ 5 nM | 
10 | COc1ccc(C(C)(C)C)nc1S(=O)(=O)NC(=O)c1ccc(Cn2cccn2)c(C(F)F)c1 [Example C36, 4-((1H-pyrazol-1-yl)methyl)-N-((6-(tert-butyl)-3-methoxypyridin-2-yl)sulfonyl)-3-(difluoromethyl)benzamide] | ≤ 5 nM | ≤ 10 nM | ≤ 5 nM | 
11 | COc1ccc(C(C)(C)C)nc1S(=O)(=O)NC(=O)c1ccc(Cn2cccn2)c(C2CCC2)c1 [Example C21, 4-((1H-pyrazol-1-yl)methyl)-N-((6-(tert-butyl)-3-methoxypyridin-2-yl)sulfonyl)-3-cyclobutyl-benzamide] | ≤ 5 nM | ≤ 10 nM | ≤ 5 nM | 
12 | [2H]C([2H])([2H])Oc1nc(C(=O)NS(=O)(=O)c2nc(C(C)(C)C)ccc2OC)ccc1Cn1cccn1 [Example C63, 5-((1H-pyrazol-1-yl)methyl)-N-((6-(tert-butyl)-3-methoxypyridin-2-yl)sulfonyl)-6-(methoxy-d3)picolinamide] | ≤ 5 nM | ≤ 10 nM | ≤ 5 nM | 
13 | COc1ccc2c(c1S(=O)(=O)NC(=O)c1ccc(Cn3cccn3)c(OC)n1)OC1CC2C1 [Example C78, 5-((1H-pyrazol-1-yl)methyl)-6-methoxy-N-((7-methoxy-3,4-dihydro-2H-2,4-methanochroman-8-yl)sulfonyl)picolinamide] | ≤ 5 nM |  | ≤ 5 nM | ≤ 10 nM
14 | COc1ccc2c(c1S(=O)(=O)NC(=O)c1ccc(Cn3cccn3)c(OC)n1)OCC21CCOCC1 [Example C71, 5-((1H-pyrazol-1-yl)methyl)-6-methoxy-N-((6-methoxy-2′,3′,5′,6′-tetrahydro-2H-spiro[benzofuran-3,4′-pyran]-7-yl)sulfonyl) picolinamide] | ≤ 5 nM | ≤ 10 nM | ≤ 5 nM | 
15 | COc1ccc(C(C)(C)C(F)(F)F)nc1S(=O)(=O)NC(=O)c1ccc(Cn2cccn2)c(OC)n1 [Example C54, 5-((1H-pyrazol-1-yl)methyl)-6-methoxy-N-((3-methoxy-6-(1,1,1-trifluoro-2-methylpropan-2-yl)pyridin-2-yl)sulfonyl)picolinamide] | ≤ 5 nM | ≤ 10 nM | ≤ 5 nM | 
16 | CCc1cc(C(=O)NS(=O)(=O)c2c(OC)ccc3c2OC(C)(C)C3)ccc1Cn1cccn1 [Example C52, 4-((1H-pyrazol-1-yl)methyl)-3-ethyl-N-((6-methoxy-2,2-dimethyl-2,3-dihydrobenzofuran-7-yl)sulfonyl)benzamide] | ≤ 5 nM | ≤ 10 nM | ≤ 5 nM | 
17 | COc1cc(C(=O)NS(=O)(=O)c2nc(C(C)(C)C)ccc2OC)ccc1Cn1cc(N)cn1 [Example C38] | ≤ 5 nM |  | ≤ 5 nM | ≤ 10 nM

From patent US20250304535A1, “KAT6 Inhibitors” (BeiGene Switzerland GmbH, priority 2024, published 2025)
